Results reported in US20110245284A1, “Alkoxy- and Alkylthio-Substituted Anilinopyrimidines” (Bayer CropScience AG, priority 2008, published 2011).

Assay: logP by LC-MS on reversed-phase columns (C 18), method [b], acidic range pH 2.7
Type: physicochemical
Conditions: pH 2.7
Procedure: (§1) The logP values were determined in accordance with EEC Directive 79/831 Annex V.A8 by HPLC (High Performance Liquid Chromatography) on reversed-phase columns (C 18), using the methods below:
[b] The LC-MS determination in the acidic range is carried out at pH 2.7 using the mobile phases 0.1% aqueous formic acid and acetonitrile (contains 0.1% formic acid), linear gradient from 10% acetonitrile to 95% acetonitrile.

Compound | log p
COCc1cccc(Nc2ncc(Cl)c(N3CCOCC3)n2)c1 [Example 90] | 2.4[b]
COC(C)c1cccc(Nc2ncc(Cl)c(NC(C)C3(Cl)CC3)n2)c1 (centres unmarked) [Example 130] | 3.72[b]
CCCC(C)SC(C)c1cccc(Nc2ncc(Cl)c(NC3CC3)n2)c1 (centres unmarked) [Example 134] | 4.24[b]
CCCC(C)SC(C)c1cccc(Nc2ncc(C(F)(F)F)c(NC3CC3)n2)c1 (centres unmarked) [Example 135] | 5.53[b]
CCN(c1nc(Nc2cccc(COC)c2)ncc1Cl)C1CC1 [Example 137] | 3.24[b]
CCCC[S+]([O-])c1cccc(Nc2ncc(Br)c(NC3CCC3)n2)c1 (centres unmarked) [Example 152] | 2.67[b]
CCS(=O)(=O)C(C)c1cccc(Nc2ncc(Br)c(NC3CC3)n2)c1 (centres unmarked) [Example 154] | 1.76[b]
CCCC(C)S(=O)(=O)C(C)c1cccc(Nc2ncc(Cl)c(NC3CC3)n2)c1 (centres unmarked) [Example 165] | 2.48[b]
CCCC(C)[S+]([O-])C(C)c1cccc(Nc2ncc(Cl)c(NC3CC3)n2)c1 (centres unmarked) [Example 166] | 2.2[b]
CCCC(C)[S+]([O-])C(C)c1cccc(Nc2ncc(C(F)(F)F)c(NC3CC3)n2)c1 (centres unmarked) [Example 167] | 3.34[b]
CCOCCOCCSc1cccc(Nc2ncc(Cl)c(NC3CC3)n2)c1 [Example 180] | 2.58[b]
COCCOCCOc1ccc(Nc2ncc(C(F)(F)F)c(NC3CC3)n2)cc1C(F)(F)F [Example 182] | 3.52[b]
COCCOC(c1cccc(Nc2ncc(Cl)c(NC3CC3)n2)c1)C(F)(F)F (centres unmarked) [Example 215] | 2.63[b]
COCCOC(c1cccc(Nc2ncc(C(F)(F)F)c(NC3CC3)n2)c1)C(F)(F)F (centres unmarked) [Example 216] | 3.72[b]
COCCOC(c1cccc(Nc2ncc(Br)c(NC3CC3)n2)c1)C(F)(F)F (centres unmarked) [Example 217] | 2.85[b]

Same assay, conditions: pH 2.7, log p

Compound | chromatographic logP
CCCC[S+]([O-])c1cccc(Nc2ncc(C(F)(F)F)c(NC3CC3)n2)c1 (centres unmarked) [Example 122] | 2.94
CNc1nc(Nc2cccc(COC)c2)ncc1Cl [Example 172] | 1.18
CCOCCOc1ccc(Nc2ncc(Cl)c(NC3CC3)n2)cc1C(F)(F)F [Example 185] | 2.91
CCSc1cccc(Nc2ncc(C(F)(F)F)c(NC3CCC3C)n2)c1 (centres unmarked) [Example 233] | 4.89
CC[S+]([O-])c1cccc(Nc2ncc(C(F)(F)F)c(NC3CC(C)C3)n2)c1 (centres unmarked) [Example 242] | 2.98
COCCOC(C)c1cccc(Nc2ncc(Cl)c(NC3CC3)n2)c1 (centres unmarked) [Example 243] | 2
CC[S+]([O-])c1cccc(Nc2ncc(C(F)(F)F)c(NC3CCC3C)n2)c1 (centres unmarked) [Example 244] | 2.9
CCCS(=O)(=O)c1cccc(Nc2ncc(C(F)(F)F)c(NC3CC3C)n2)c1 (centres unmarked) [Example 245] | 3.43
CCC[S+]([O-])c1cccc(Nc2ncc(C(F)(F)F)c(NC3CC3C)n2)c1 (centres unmarked) [Example 246] | 2.9
COCCCOC(C)c1cccc(Nc2ncc(C(F)(F)F)c(NC3CC3)n2)c1 (centres unmarked) [Example 254] | 3.49
COCCOC(C)c1cccc(Nc2ncc(C(F)(F)F)c(NC3CC3)n2)c1 (centres unmarked) [Example 257] | 3.05
CCOC(C)c1cccc(Nc2ncc(C(F)(F)F)c(NC3CC3)n2)c1 (centres unmarked) [Example 258] | 3.6
CCSC(C)c1cccc(Nc2ncc(Cl)c(NC3CCC3C)n2)c1 (centres unmarked) [Example 259] | 3.59

Assay: logP by LC-MS on reversed-phase columns (C 18), method [c], neutral range pH 7.8
Type: physicochemical
Conditions: pH 7.8
Procedure: as §1
[c] The LC-MS determination in the neutral range is carried out at pH 7.8 using the mobile phases 0.001 molar aqueous ammonium bicarbonate solution and acetonitrile, linear gradient from 10% acetonitrile to 95% acetonitrile.

Compound | log p | chromatographic logP
COCc1cccc(Nc2ncc(Cl)c(N3CCOCC3)n2)c1 [Example 90] | 2.87[c]; | –
CCCC[S+]([O-])c1cccc(Nc2ncc(C(F)(F)F)c(NC3CC3)n2)c1 (centres unmarked) [Example 122] | – | 3.02
COC(C)c1cccc(Nc2ncc(Cl)c(NC(C)C3(Cl)CC3)n2)c1 (centres unmarked) [Example 130] | 4.65[c]; | –
CCCC(C)SC(C)c1cccc(Nc2ncc(Cl)c(NC3CC3)n2)c1 (centres unmarked) [Example 134] | 5.55[c]; | –
CCCC(C)SC(C)c1cccc(Nc2ncc(C(F)(F)F)c(NC3CC3)n2)c1 (centres unmarked) [Example 135] | 5.8[c]; | –
CCN(c1nc(Nc2cccc(COC)c2)ncc1Cl)C1CC1 [Example 137] | 4.23[c]; | –
CCCC[S+]([O-])c1cccc(Nc2ncc(Br)c(NC3CCC3)n2)c1 (centres unmarked) [Example 152] | 3.5[c]; | –
CCS(=O)(=O)C(C)c1cccc(Nc2ncc(Br)c(NC3CC3)n2)c1 (centres unmarked) [Example 154] | 2.7[c]; | –
CCCC(C)S(=O)(=O)C(C)c1cccc(Nc2ncc(Cl)c(NC3CC3)n2)c1 (centres unmarked) [Example 165] | 3.56[c]; | –
CCCC(C)[S+]([O-])C(C)c1cccc(Nc2ncc(Cl)c(NC3CC3)n2)c1 (centres unmarked) [Example 166] | 3.1[c]; | –
CCCC(C)[S+]([O-])C(C)c1cccc(Nc2ncc(C(F)(F)F)c(NC3CC3)n2)c1 (centres unmarked) [Example 167] | 3.85[c]; | –
CNc1nc(Nc2cccc(COC)c2)ncc1Cl [Example 172] | – | 2.44
CCOCCOCCSc1cccc(Nc2ncc(Cl)c(NC3CC3)n2)c1 [Example 180] | 3.63[c]; | –
COCCOCCOc1ccc(Nc2ncc(C(F)(F)F)c(NC3CC3)n2)cc1C(F)(F)F [Example 182] | 3.79[c]; | –
CCOCCOc1ccc(Nc2ncc(Cl)c(NC3CC3)n2)cc1C(F)(F)F [Example 185] | – | 4
COCCOC(c1cccc(Nc2ncc(Cl)c(NC3CC3)n2)c1)C(F)(F)F (centres unmarked) [Example 215] | 3.61[c]; | –
COCCOC(c1cccc(Nc2ncc(C(F)(F)F)c(NC3CC3)n2)c1)C(F)(F)F (centres unmarked) [Example 216] | 3.9[c]; | –
COCCOC(c1cccc(Nc2ncc(Br)c(NC3CC3)n2)c1)C(F)(F)F (centres unmarked) [Example 217] | 3.76[c]; | –
CCSc1cccc(Nc2ncc(C(F)(F)F)c(NC3CCC3C)n2)c1 (centres unmarked) [Example 233] | – | 5.27
CC[S+]([O-])c1cccc(Nc2ncc(C(F)(F)F)c(NC3CC(C)C3)n2)c1 (centres unmarked) [Example 242] | – | 3.32
COCCOC(C)c1cccc(Nc2ncc(Cl)c(NC3CC3)n2)c1 (centres unmarked) [Example 243] | – | 3.26
CC[S+]([O-])c1cccc(Nc2ncc(C(F)(F)F)c(NC3CCC3C)n2)c1 (centres unmarked) [Example 244] | – | 3.3
CCCS(=O)(=O)c1cccc(Nc2ncc(C(F)(F)F)c(NC3CC3C)n2)c1 (centres unmarked) [Example 245] | – | 3.61
CCC[S+]([O-])c1cccc(Nc2ncc(C(F)(F)F)c(NC3CC3C)n2)c1 (centres unmarked) [Example 246] | – | 3.23
COCCCOC(C)c1cccc(Nc2ncc(C(F)(F)F)c(NC3CC3)n2)c1 (centres unmarked) [Example 254] | – | 3.98
COCCOC(C)c1cccc(Nc2ncc(C(F)(F)F)c(NC3CC3)n2)c1 (centres unmarked) [Example 257] | – | 3.61
CCOC(C)c1cccc(Nc2ncc(C(F)(F)F)c(NC3CC3)n2)c1 (centres unmarked) [Example 258] | – | 4.12
CCSC(C)c1cccc(Nc2ncc(Cl)c(NC3CCC3C)n2)c1 (centres unmarked) [Example 259] | – | 5.3
